In patent US10894807B2 (Siemens Medical Solutions USA, Inc., priority 2011, dated 2021):

Biological target: human PSMA (Homo sapiens (Human), UniProt Q04609)
Experiment: Enzymatic assay for in vitro evaluation of PSMA inhibitors (fluorescent assay of PSMA activity, NAAG substrate, OPA detection of glutamate)
Assay type: biochemical
Details: for PSMA Blkg % (10 μM): compound at 10 μM

human PSMA, sequence (Q04609 whole entry): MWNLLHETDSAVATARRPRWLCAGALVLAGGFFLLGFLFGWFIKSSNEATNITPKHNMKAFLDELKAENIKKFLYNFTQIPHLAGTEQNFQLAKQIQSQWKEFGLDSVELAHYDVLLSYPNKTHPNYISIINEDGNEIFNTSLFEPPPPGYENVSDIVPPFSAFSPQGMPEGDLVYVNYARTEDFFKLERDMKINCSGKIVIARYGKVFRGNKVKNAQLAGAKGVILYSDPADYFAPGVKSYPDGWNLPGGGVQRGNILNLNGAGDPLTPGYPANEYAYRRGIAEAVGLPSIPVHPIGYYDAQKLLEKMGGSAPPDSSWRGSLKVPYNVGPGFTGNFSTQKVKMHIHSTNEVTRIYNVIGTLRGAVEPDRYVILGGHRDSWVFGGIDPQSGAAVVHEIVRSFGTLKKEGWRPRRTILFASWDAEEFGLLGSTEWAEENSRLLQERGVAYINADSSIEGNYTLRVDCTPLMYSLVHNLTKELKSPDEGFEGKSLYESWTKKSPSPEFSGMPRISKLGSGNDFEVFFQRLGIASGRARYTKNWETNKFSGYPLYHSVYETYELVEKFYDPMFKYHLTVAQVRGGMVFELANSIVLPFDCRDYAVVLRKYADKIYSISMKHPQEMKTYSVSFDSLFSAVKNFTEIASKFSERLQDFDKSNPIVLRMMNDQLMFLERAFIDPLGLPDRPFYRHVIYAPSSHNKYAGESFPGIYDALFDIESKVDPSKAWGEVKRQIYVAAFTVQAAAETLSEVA

Compound	PSMA Blkg % (10 μM)	Ki
CCC1(CC)C(=O)N([C@@H](CCCCNC(=O)OCc2ccccc2)C(=O)O)C(=S)N([C@@H](CCC(=O)O)C(=O)O)C1=O [P138, (S)-2-(3-((S)-5-(Benzyloxycarbonylamino)-1-carboxypentyl)-5,5-diethyl-4,6-dioxo-2-thioxotetrahydropyrimidin-1(2H)-yl)pentanedioic Acid]	6%	
O=C(O)CC[C@H](NC(=O)N(O)[C@@H](CCCNC(=O)OCc1ccccc1)C(=O)O)C(=O)O [P139, (8S,12S)-9-Hydroxy-3,10-dioxo-1-phenyl-2-oxa-4,9,11-triazatetradecane-8,12,14-tricarboxylic Acid]	16%	
O=C(O)CC[C@@H](C(=O)O)N(O)C(=O)N[C@@H](CCCCNC(=O)OCc1ccccc1)C(=O)O [P140, (9S,13S)-12-Hydroxy-3,11-dioxo-1-phenyl-2-oxa-4,10,12-triazapentadecane-9,13,15-tricarboxylic Acid]	64%	
O=C(O)CC[C@H](NC(=O)CN(O)C(=O)CCCNC(=O)c1ccc(-n2cc(CCCF)nn2)cc1)C(=O)O [P141, (S)-2-(2-(4-(4-(4-(3-Fluoropropyl)-1H-1,2,3-triazol-1-yl)benzamido)-N-hydroxybutanamido)acetamido)pentanedioic Acid]	1%	
O=C(O)CC[C@H](NC(=O)CN(O)C(=O)CCCNC(=O)Cn1cc(CCCF)nn1)C(=O)O [P142, (S)-2-(2-(4-(2-(4-(3-Fluoropropyl)-1H-1,2,3-triazol-1-yl)acetamido)-N-hydroxybutanamido)acetamido)pentanedioic Acid]	5%	
CN(C(=S)N[C@@H](CCC(=O)O)C(=O)O)[C@@H](CCCCNC(=O)OCc1ccccc1)C(=O)O [P143, (9S,13S)-10-Methyl-3-oxo-1-phenyl-1-thioxo-2-oxa-4,10,12-triazapentadecane-9,13,15-tricarboxylic Acid]	15%	
O=C(O)CC[C@H](NC(=O)CN(O)C(=O)CCc1ccc(-n2cc(CCCF)nn2)cc1)C(=O)O [P144, (S)-2-(2-(3-(4-(4-(3-Fluoropropyl)-1H-1,2,3-triazol-1-yl)phenyl)-N-hydroxypropanamido)acetamido)pentanedioic Acid]	7%	
O=C(O)CC[C@H](NC(=S)CN(O)C(=O)CCCc1ccc(-n2cc(CCCF)nn2)cc1)C(=O)O [P145, (S)-2-(2-(4-(4-(4-(3-Fluoropropyl)-1H-1,2,3-triazol-1-yl)phenyl)-N-hydroxy-butanamido)ethanethioamido)pentanedioic Acid]	7%	
O=C(O)CC[C@H](NC(=S)N(O)[C@@H](CCCCNC(=O)c1ccc(-n2cc(CCCF)nn2)cc1)C(=O)O)C(=O)O [P146, (S)-2-(3-((S)-1-Carboxy-5-(4-(4-(3-fluoropropyl)-1H-1,2,3-triazol-1-yl)benzamido)pentyl)-3-hydroxythioureido)pentanedioic Acid]	45%	
O=C(O)CC[C@@H](C(=O)O)N(O)C(=O)N[C@@H](CCCCNC(=O)CCCc1ccc(-n2cc(CCCF)nn2)cc1)C(=O)O [P147, (S)-2-(3-((S)-1-Carboxy-5-(4-(4-(4-(3-fluoropropyl)-1H-1,2,3-triazol-1-yl)phenyl)butanamido)pentyl)-1-hydroxyureido)pentanedioic Acid]	69%	
O=C(O)CC[C@@H](C(=O)O)N(O)C(=O)N[C@@H](CCCCNC(=O)Cn1cc(CCCF)nn1)C(=O)O [P148, (S)-2-(3-((S)-1-Carboxy-5-(2-(4-(3-fluoropropyl)-1H-1,2,3-triazol-1-yl)acetamido)pentyl)-1-hydroxyureido)pentanedioic Acid]	87%	250 nM
COc1ccc(CCNC(=O)N(O)CC(=O)N[C@@H](CCC(=O)O)C(=O)O)cc1OC [P149, (S)-2-(2-(3-(3,4-Dimethoxyphenethyl)-1-hydroxyureido)acetamido)pentanedioic Acid]	0%	
CCC1(CC)C(=O)N([C@@H](CCCCn2cc(CCCF)nn2)C(=O)O)C(=O)N([C@@H](CCC(=O)O)C(=O)O)C1=O [P150, (S)-2-(3-((S)-1-Carboxy-5-(4-(3-fluoropropyl)-1H-1,2,3-triazol-1-yl)pentyl)-5,5-diethyl-2,4,6-trioxotetrahydropyrimidin-1(2H)-yl)pentanedioic Acid]	9%	
CCC1(CC)C(=O)N([C@@H](CCCCn2cc(COCCOCCNc3ccc([N+](=O)[O-])cc3[N+](=O)[O-])nn2)C(=O)O)C(=O)N([C@@H](CCC(=O)O)C(=O)O)C1=O [P151, (S)-2-(3-((S)-1-Carboxy-5-(4-((2-(2-(2,4-dinitrophenylamino)ethoxy)ethoxy)methyl)-1H-1,2,3-triazol-1-yl)pentyl)-5,5-diethyl-2,4,6-trioxotetrahydropyrimidin-1(2H)-yl)pentanedioic Acid]	17%	
O=C(O)CC[C@@H](C(=O)O)N(O)C(=O)N[C@@H](CCCCNC(=O)c1ccc(-n2cc(CCCF)nn2)cc1)C(=O)O [P152, (S)-2-(3-((S)-1-Carboxy-5-(4-(4-(3-fluoropropyl)-1H-1,2,3-triazol-1-yl)benzamido)pentyl)-1-hydroxyureido)pentanedioic Acid]	93%	128 nM
N#C/N=C(/N[C@@H](CCCCNC(=O)c1ccc(-n2cc(CCCF)nn2)cc1)C(=O)O)N[C@@H](CCC(=O)O)C(=O)O [P153, (S)-2-(3-((S)-1-Carboxy-5-(4-(4-(3-fluoropropyl)-1H-1,2,3-triazol-1-yl)benzamido)pentyl)-2-cyanoguanidino)pentanedioic Acid]	63%	
O=C(O)CC[C@H](NC(=O)CN(O)C(=O)CCCc1ccc(F)cc1)C(=O)O [P154, (S)-2-(2-(4-(4-Fluorophenyl)-N-hydroxybutanamido)acetamido)pentanedioic Acid]	50%	

Compound	PSMA Blkg % (10 μM)	Ki
O=C(O)CC[C@H](NC(=O)N[C@@H](CCCCNC(=O)c1ccc(F)cc1)C(=O)O)C(=O)O [P155]	97%	3.1 nM
CN(C(=O)N[C@@H](CCC(=O)O)C(=O)O)[C@@H](CCCCNC(=O)c1ccc(F)cc1)C(=O)O [P156, (S)-2-(3-((S)-1-Carboxy-5-(4-fluorobenzamido)pentyl)-3-methylureido)pentanedioic Acid]	87%	219 nM
CC(F)C(=O)Nc1ccc(C(=O)NCCCC[C@@H](C(=O)O)N(O)C(=O)N[C@@H](CCC(=O)O)C(=O)O)cc1 (stereo partly drawn) [P157, (2S)-2-(3-((1S)-1-Carboxy-5-(4-(2-fluoropropanamido)benzamido)pentyl)-3-hydroxyureido)pentanedioic Acid]	79%	> 313 nM
CC(F)C(=O)Nc1ccc(C(=O)NCCCCC(C(=O)O)N(C)C(=O)N[C@@H](CCC(=O)O)C(=O)O)cc1 (stereo partly drawn) [P158, (2S)-2-(3-((S)-1-Carboxy-5-(4-(2-fluoropropanamido)benzamido)pentyl)-3-methylureido)pentanedioic Acid]	99%	34.4 nM
CN(C(=O)[C@H](CC(=O)O)NC(=O)c1ccc(-n2cc(CCCF)nn2)cc1)[C@@H](CCC(=O)O)C(=O)O [P159, (S)-2-((S)-3-Carboxy-2-(4-(4-(3-fluoropropyl)-1H-1,2,3-triazol-1-yl)benzamido)-N-methylpropanamido)pentanedioic Acid]	39%	
CN(C(=O)N[C@@H](CCC(=O)O)C(=O)O)[C@@H](CCCCNC(=O)c1ccc(OCCF)cc1)C(=O)O [P161]	96%	
O=C(O)CC[C@@H](C(=O)O)N(O)C(=O)N[C@@H](CCCCNC(=O)c1ccc(F)cc1)C(=O)O [P162, (S)-2-(3-((S)-1-Carboxy-5-(4-fluorobenzamido)pentyl)-1-hydroxyureido)pentanedioic Acid]	79%	> 531 nM
CN(C(=O)[C@H](CC(=O)O)NC(=O)c1ccc(F)cc1)[C@@H](CCC(=O)O)C(=O)O [P163, (S)-2-((S)-3-Carboxy-2-(4-fluorobenzamido)-N-methylpropanamido)pentanedioic Acid]	0%	
O=C(O)CC[C@H](NC(=O)N(O)[C@@H](CCCCNC(=O)c1ccc(NC(=O)c2ccc(F)nc2)cc1)C(=O)O)C(=O)O [P164, (S)-2-(3-((S)-1-Carboxy-5-(4-(6-fluoronicotinamido)benzamido)pentyl)-3-hydroxyureido)pentanedioic Acid]	80%	> 407 nM
O=C(O)/C=C/C(=O)N[C@@H](CCC(=O)O)C(=O)O [P165]	11%	
O=C(O)CC[C@H](NC(=O)N(O)[C@@H](CCCCNC(=O)Cn1cc(CCCF)nn1)C(=O)O)C(=O)O [P166, (S)-2-(3-((S)-1-Carboxy-5-(2-(4-(3-fluoropropyl)-1H-1,2,3-triazol-1-yl)acetamido)pentyl)-3-hydroxyureido)pentanedioic Acid]	87%	> 375 nM
O=C(O)CC[C@H](NC(=O)N(O)[C@@H](CCCCNC(=O)c1ccc(OCCF)cc1)C(=O)O)C(=O)O [P167, (S)-2-(3-((S)-1-Carboxy-5-(4-(2-fluoroethoxy)benzamido)pentyl)-3-hydroxyureido)pentanedioic Acid]	93%	> 657 nM
C#Cc1ccc(C(=O)NCCCC[C@@H](C(=O)O)N(O)C(=O)N[C@@H](CCC(=O)O)C(=O)O)cc1 [P168, (S)-2-(3-((S)-1-Carboxy-5-(4-ethynylbenzamido)pentyl)-3-hydroxyureido)pentanedioic Acid]	98%	
O=C(O)CC[C@H](NC(=O)N(O)[C@@H](CCCCNC(=O)c1ccc(F)cc1)C(=O)O)C(=O)O [P169, (S)-2-(3-((S)-1-Carboxy-5-(4-fluorobenzamido)pentyl)-3-hydroxyureido)pentanedioic Acid]	79%	156 nM
CN(C(=O)[C@H](CC(=O)O)NC(=O)CCc1ccc(-n2cc(CCCF)nn2)cc1)[C@@H](CCC(=O)O)C(=O)O [P170, (S)-2-((S)-3-Carboxy-2-(3-(4-(4-(3-fluoropropyl)-1H-1,2,3-triazol-1-yl)phenyl)propanamido)-N-methylpropanamido)pentanedioic Acid]	58%	
O=C(O)CC[C@H](NC(=O)N(O)C(CCCCNC(=O)c1ccc(NC(=O)c2ccc(F)cc2)cc1)C(=O)O)C(=O)O (some centres unmarked) [P171]	87%	
